# Like-named read-outs stand apart in the source and are kept apart here. Where a SMILES comes first, the peptide text is derived from it.
# Target: T1, LmjIPCS (inositol phosphorylceramide synthase from L. major) (Leishmania major, UniProt E9AFX2)
# T1 sequence (E9AFX2 1-338): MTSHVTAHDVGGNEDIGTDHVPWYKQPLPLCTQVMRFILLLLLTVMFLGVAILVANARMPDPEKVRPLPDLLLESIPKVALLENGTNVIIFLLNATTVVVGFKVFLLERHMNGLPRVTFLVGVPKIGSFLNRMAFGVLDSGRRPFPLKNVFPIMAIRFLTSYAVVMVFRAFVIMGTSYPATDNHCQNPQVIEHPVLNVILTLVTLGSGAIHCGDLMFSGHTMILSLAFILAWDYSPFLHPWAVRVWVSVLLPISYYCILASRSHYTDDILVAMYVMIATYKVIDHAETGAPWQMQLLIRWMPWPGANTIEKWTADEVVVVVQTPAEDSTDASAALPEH
# Experiment: biochemical
# Format: biochemical
# Design: inhibition: dose or concentration left out as unconfirmed
# Conditions: for inhibition: read-out: inhibition LmjIPCS; for inhibition at 20000 µM: read-out: 20mM inhibition LmjIPCS
# [1] = screening of NINDS set, sheet Screen 1
# [2] = NINDS set screen, single concentration printed as 20mM
# [3] = single concentration 20mM as printed, screening of NINDS set, sheet Screen 1
smiles,measurement,setting,value
S=c1[nH]cnc2nc[nH]c12 [MERCAPTOPURINE],inhibition,[1],6%
CC(=O)N[C@@H](Cc1c[nH]c2ccccc12)C(N)=O [ACETYLTRYPTOPHANAMIDE],inhibition,[1],1.65%
Nc1nc2nc[nH]c2c(=S)[nH]1 [THIOGUANINE],inhibition,,6%
CC1(C)O[C@@H]2C[C@H]3[C@@H]4C[C@H](F)C5=CC(=O)C=C[C@]5(C)[C@H]4[C@@H](O)C[C@]3(C)[C@]2(C(=O)CO)O1 [FLUNISOLIDE],inhibition at 20000 µM,,-10%
C[C@@H]1O[C@@H]1P(=O)(O)O [FOSFOMYCIN],inhibition,,16%
C[N+]1(C)CCCC(OC(=O)C(O)(c2ccccc2)c2ccccc2)C1 (centres unmarked) [MEPENZOLATE BROMIDE],inhibition at 20000 µM,,16%
COc1ccc(C2C(=O)c3ccccc3C2=O)cc1 [ANISINDIONE],inhibition,[1],10%
CCC1(CC)C(=O)C=CNC1=O [PYRITHYLDIONE],20mM inhibition LmjIPCS,,52%
CC(C)=CCC[C@]1(C)C=Cc2c(O)c3c(c(CC=C(C)C)c2O1)O[C@]12C(=C[C@@H]4C[C@H]1C(C)(C)O[C@@]2(C/C=C(/C)C(=O)O)C4=O)C3=O [GAMBOGIC ACID],20mM inhibition LmjIPCS,,58%
O=C1OC(=O)[C@H]2[C@@H]1[C@@H]1CC[C@H]2O1 [NORCANTHARIDIN],20mM inhibition LmjIPCS,,1.76%
COc1ccc(-c2oc3c(CC=C(C)C)c(O[C@@H]4O[C@H](CO)[C@@H](O)[C@H](O)[C@H]4O)cc(O)c3c(=O)c2O[C@@H]2O[C@@H](C)[C@H](O)[C@@H](O)[C@H]2O)cc1 [ICARIIN],inhibition at 20000 µM,,10%
NC[C@H](O)c1ccc(O)c(O)c1 [NOREPINEPHRINE],inhibition at 20000 µM,,12%
N.N.O=C([O-])C1(C(=O)[O-])CCC1.[Pt+2] [CARBOPLATIN],20mM inhibition LmjIPCS,"NINDS set screen, compound at 20mM (so in the source)",16%
"Cc1cc(C(C)(C)C)c(O)c(C(C)(C)C)c1 [2,6-DI-t-BUTYL-4-METHYLPHENOL]",20mM inhibition LmjIPCS,[2],36%
C[C@]12CCC(=O)C=C1C=C[C@@H]1[C@@H]2CC[C@@]2(C)[C@H]1CC[C@@]2(O)CCC(=O)O [CANRENOIC ACID],inhibition,,7%
Nc1c2ccccc2nc2ccccc12 [AMINACRINE],inhibition at 20000 µM,,-11%
Cc1cc(=O)n(-c2ccccc2)n1C [ANTIPYRINE],20mM inhibition LmjIPCS,,36%
C=C1c2cccc(O)c2C(=O)C2=C(O)[C@]3(O)C(=O)C(C(N)=O)=C(O)[C@@H](N(C)C)[C@@H]3[C@@H](O)[C@H]12 [METHACYCLINE],inhibition at 20000 µM,,33%
CN1CCOC(c2ccccc2)c2ccccc2C1 (centres unmarked) [NEFOPAM],20mM inhibition LmjIPCS,,68%
CN1CCC(=C2c3ccccc3CC(=O)c3sccc32)CC1 [KETOTIFEN],20mM inhibition LmjIPCS,,36%
COC(=O)Nc1nc2ccc([S+]([O-])c3ccccc3)cc2[nH]1 (centres unmarked) [OXFENDAZOLE],inhibition,[1],10%
CC(=O)O[C@H]1C[C@@]2(C)[C@@H](C[C@@H](O)[C@H]3[C@@]4(C)CC[C@@H](O)[C@@H](C)[C@@H]4CC[C@@]32C)/C1=C(\CCC=C(C)C)C(=O)O [FUSIDIC ACID],inhibition,,5.47%
CCS(=O)(=O)CCn1c([N+](=O)[O-])cnc1C [TINIDAZOLE],inhibition at 20000 µM,,15%
C[N+](C)(C)CCOP(=O)(O)OP(=O)([O-])OC[C@H]1O[C@@H](n2ccc(N)nc2=O)[C@H](O)[C@@H]1O [CITICOLINE],inhibition at 20000 µM,,0.108%
COc1cc([C@@H]2c3cc4c(c(O)c3C[C@H]3COC(=O)[C@@H]32)OCO4)cc(OC)c1OC [beta-PELTATIN],inhibition at 20000 µM,,-1.86%
C[N+]12CCC(CC1)C(OC(=O)C(O)(c1ccccc1)c1ccccc1)C2 (centres unmarked) [CLIDINIUM BROMIDE],20mM inhibition LmjIPCS,,54%
CCOC(=O)[C@H](CCc1ccccc1)N[C@@H](C)C(=O)N1[C@H](C(=O)O)C[C@H]2CCCC[C@@H]21 [TRANDOLAPRIL],inhibition at 20000 µM,,7.54%
CCN(CCCCOC(=O)c1ccc(OC)c(OC)c1)C(C)Cc1ccc(OC)cc1 (centres unmarked) [MEBEVERINE],20mM inhibition LmjIPCS,,54%
CC(=O)NO [ACETOHYDROXAMIC ACID],20mM inhibition LmjIPCS,[2],34%
CC1(C)S[C@@H]2[C@H](NC(=O)Cc3ccccc3)C(=O)N2[C@H]1C(=O)O [BENZYL PENICILLIN],inhibition,,21%
OC[C@H]1O[C@@H](O[C@@H]2[C@@H](CO)OC(O)(CO)[C@H]2O)[C@H](O)[C@@H](O)[C@H]1O (mixture of isomers) [LACTULOSE],inhibition at 20000 µM,,26%
CCN1CCCC1CNC(=O)c1cc(S(N)(=O)=O)ccc1OC (centres unmarked) [SULPIRIDE],20mM inhibition LmjIPCS,,43%
CO[C@@H]1[C@@H](OC(N)=O)[C@@H](O)[C@H](Oc2ccc3c(O)c(NC(=O)c4ccc(O)c(CC=C(C)C)c4)c(=O)oc3c2C)OC1(C)C [NOVOBIOCIN],inhibition at 20000 µM,,16%
CC(C)c1nc(N(C)S(C)(=O)=O)nc(-c2ccc(F)cc2)c1/C=C/[C@@H](O)C[C@@H](O)CC(=O)O [ROSUVASTATIN],inhibition,NINDS set screen,12%
N[C@@H](Cc1ccccc1)C(=O)N[C@@H](Cc1ccc(O)cc1)C(=O)O [PHENYLALANYLTYROSINE] (H-Phe-Tyr-OH),inhibition at 20000 µM,,7.42%
C=CCc1ccc2c(c1)OCO2 [SAFROLE],inhibition at 20000 µM,,1.28%
O=C1C=CC(=O)c2c(O)cccc21 [JUGLONE],20mM inhibition LmjIPCS,,48%
O=C(CCc1ccc(O)cc1)c1c(O)cc(O)cc1O[C@@H]1O[C@H](CO)[C@@H](O)[C@H](O)[C@H]1O [PHLORIDZIN],inhibition,NINDS set screen,15%
c1ccc(CN(CC2=NCCN2)c2ccccc2)cc1 [ANTAZOLINE],20mM inhibition LmjIPCS,,61%
C=C(C)[C@H]1Cc2c(ccc3c2O[C@@H]2COc4cc(OC)c(OC)cc4[C@@H]2C3=O)O1 [ROTENONE],20mM inhibition LmjIPCS,,43%
O=C1C=C2C=C[C@@H]3C[C@@]2(O1)[C@H]1CCCCN31 [SECURININE],inhibition at 20000 µM,,11%
COC(=O)[C@H](c1ccccc1Cl)N1CCc2sccc2C1 [CLOPIDOGREL],inhibition at 20000 µM,,32%
C[C@]12CC[C@@H]3c4ccc(O)cc4CC[C@H]3[C@@H]1CC[C@@H]2O [ESTRADIOL],inhibition at 20000 µM,,-5.65%
CN1CCc2cccc3c2[C@H]1Cc1ccc(O)c(O)c1-3 [APOMORPHINE],20mM inhibition LmjIPCS,[2],47%
CCn1cc(C(=O)O)c(=O)c2cc(F)c(N3CCNC(C)C3)c(F)c21 (centres unmarked) [LOMEFLOXACIN],inhibition,,4%
NS(=O)(=O)c1cc2c(cc1C(F)(F)F)NCNS2(=O)=O [HYDROFLUMETHIAZIDE],inhibition at 20000 µM,,9%
Cc1cn([C@H]2C[C@H](N=[N+]=[N-])[C@@H](CO)O2)c(=O)[nH]c1=O [ZIDOVUDINE [AZT]],20mM inhibition LmjIPCS,[3],7%
NC1=NCCN1CC(=O)O [CYCLOCREATINE],inhibition,[1],11%
COC1=C[C@@H]2[C@@H]3Cc4ccc(OC)c(O)c4[C@]2(CCN3C)CC1=O [SINOMENINE],inhibition at 20000 µM,,8%
CCN(CC)C(=O)c1cccc(C)c1 [DIETHYLTOLUAMIDE],inhibition at 20000 µM,,17%
NS(=O)(=O)c1cc2c(cc1Cl)N=C(CSCc1ccccc1)NS2(=O)=O [BENZTHIAZIDE],20mM inhibition LmjIPCS,[2],36%
CCC(=O)O[C@]1(C(=O)CCl)[C@@H](C)C[C@H]2[C@@H]3CCC4=CC(=O)C=C[C@]4(C)[C@@]3(F)[C@@H](O)C[C@@]21C [CLOBETASOL PROPRIONATE],20mM inhibition LmjIPCS,,17%
c1ccc(/N=N/c2ccccc2)cc1 [AZOBENZENE],inhibition at 20000 µM,,2.28%
COc1cc([C@@H]2c3cc4c(cc3[C@@H](O[C@@H]3O[C@@H]5CO[C@@H](c6cccs6)O[C@H]5[C@H](O)[C@H]3O)[C@H]3COC(=O)[C@H]23)OCO4)cc(OC)c1O [TENIPOSIDE],inhibition,,23%
COc1ccc(C(=O)O[C@H]2CC[C@@]3(C)[C@@H]4CC[C@H]5[C@]6(O)C[C@H](O)[C@@]7(O)[C@@H](CN8C[C@@H](C)CC[C@H]8[C@@]7(C)O)[C@]6(O)C[C@@]53O[C@]24O)cc1OC [VERATRIDINE],inhibition at 20000 µM,,11%
CC=CC(=O)N(CC)c1ccccc1C (mixture of isomers) [CROTAMITON],inhibition at 20000 µM,,22%
CON [METHOXYAMINE],20mM inhibition LmjIPCS,,12%
C=C1CC[C@H](O)C/C1=C/C=C1\CCC[C@]2(C)[C@@H]([C@H](C)/C=C/[C@H](C)C(C)C)CC[C@@H]12 [ERGOCALCIFEROL],inhibition,,-1.77%
N=C(N)N/N=C/c1c(Cl)cccc1Cl [GUANABENZ ACETATE],20mM inhibition LmjIPCS,,55%
C[C@H](CCC(=O)O)[C@H]1CC[C@H]2[C@@H]3[C@@H](O)C[C@@H]4C[C@H](O)CC[C@]4(C)[C@H]3CC[C@]12C [URSODIOL],inhibition,,8%
Cn1cnc([N+](=O)[O-])c1Sc1ncnc2nc[nH]c12 [AZATHIOPRINE],20mM inhibition LmjIPCS,,39%
[H]/N=C(/N)NS(=O)(=O)c1ccc(N)cc1 [SULFAGUANIDINE],inhibition at 20000 µM,,-1.62%
COc1ccc2cc1Oc1ccc(cc1)C[C@H]1c3cc(c(OC)cc3CCN1C)Oc1c(OC)c(OC)cc3c1[C@H](C2)N(C)CC3 [TETRANDRINE],20mM inhibition LmjIPCS,,65%
COc1cc2c(cc1OC)[C@@H]1Cc3ccc(OC)c(OC)c3CN1CC2 [TETRAHYDROPALMATINE],inhibition,,29%
CC1CCc2cc(F)cc3c(=O)c(C(=O)O)cn1c23 (centres unmarked) [FLUMEQUINE],inhibition at 20000 µM,,5%
CC(=O)Oc1c(C)c(C)c2c(c1C)CCC(C)(CCC[C@H](C)CCC[C@H](C)CCCC(C)C)O2 (stereo partly drawn) [alpha-TOCOPHERYL ACETATE],inhibition at 20000 µM,,-0.425%
O=C1NC(=O)C(c2ccccc2)(c2ccccc2)N1 [PHENYTOIN],inhibition,,14%
C=N[C@@H](C(=O)N[C@@H]1C(=O)N2[C@@H]1SC(C)(C)[C@@H]2C(=O)O)c1ccccc1 [METAMPICILLIN],inhibition,[1],10%
CCN(CC)CCNC(=O)c1cc(S(C)(=O)=O)ccc1OC [TIAPRIDE],inhibition,NINDS set screen,-5%
Cc1cccc(N(C)C(=S)Oc2ccc3ccccc3c2)c1 [TOLNAFTATE],20mM inhibition LmjIPCS,,62%
NC(Cc1ccc(Cl)cc1)C(=O)O (centres unmarked) [p-CHLOROPHENYLALANINE],20mM inhibition LmjIPCS,[3],4%

# — publication PMC7802075 (ACS Infectious Diseases, 2020)
